Assay results reported in article PMC11200976, “Pitavastatin Calcium Confers Fungicidal Properties to Fluconazole by Inhibiting Ubiquinone Biosynthesis and Generating Reactive Oxygen Species” (Antioxidants, 2024).
Counter-ions that a name gives are not always drawn.

system: C. albicans; experiment: Broth microdilution assay of synergistic lethality with 4 μg/mL FLC (recovery on drug-free YPD); type: cell-based, Candida albicans; conditions: not given

**Q.** Br.NC(=O)C(c1ccccc1)(c1ccccc1)[C@@H]1CCN(CCc2ccc3c(c2)CCO3)C1 [Darifenacin (hydrobromide)] was tested. Which Synergistic lethal concentrations did it give?
**A.** 100 µM

**Q.** CNCC[C@H](Oc1cccc2ccccc12)c1cccs1.Cl [Duloxetine (hydrochloride)] was tested. Which Synergistic lethal concentrations did it give?
**A.** 50 µM

same assay, conditions: concentration of the compound that is synergistically lethal with 4 μg/mL FLC; C. albicans; recovery on drug-free YPD

**Q.** How did the Synergistic lethal concentrations turn out when CN1CCC(=C2c3ccccc3C=Cc3ccccc32)CC1.CN1CCC(=C2c3ccccc3C=Cc3ccccc32)CC1.Cl.Cl.O.O.O was run?
**A.** 100 µM

**Q.** For CC=CC(=O)N(CC)c1ccccc1C (mixture of isomers) [Crotamiton], which Synergistic lethal concentrations is on record?
**A.** 100 µM

**Q.** Which Synergistic lethal concentrations does the source give for Cl.Cl.OCCN1CCN(CCC=C2c3ccccc3Sc3ccc(C(F)(F)F)cc32)CC1 (mixture of isomers) [Flupentixol dihydrochloride] here?
**A.** 100 µM

**Q.** Which Synergistic lethal concentrations does the source give for COC(=O)C1=C(C)NC(C)=C(C(=O)O[C@@H]2CCCN(Cc3ccccc3)C2)[C@@H]1c1cccc([N+](=O)[O-])c1.Cl (racemic) [Benidipine (hydrochloride)] here?
**A.** 100 µM

**Q.** How did the Synergistic lethal concentrations turn out when O=C(c1ccc(F)c(F)c1Nc1ccc(I)cc1F)N1CC(O)([C@@H]2CCCCN2)C1 (racemic) [Cobimetinib (racemate)] was run?
**A.** 25 µM

**Q.** Nc1c2ccccc2nc2ccccc12 [9-Aminoacridine] was tested. Which Synergistic lethal concentrations did it give?
**A.** 100 µM

**Q.** Which Synergistic lethal concentrations does the source give for CN(C)C/C=C/C(=O)Nc1cc2c(Nc3ccc(F)c(Cl)c3)ncnc2cc1O[C@H]1CCOC1.O=C(O)/C=C\C(=O)O.O=C(O)/C=C\C(=O)O [Afatinib (dimaleate)] here?
**A.** 100 µM

**Q.** With CN(C)C/C=C/C(=O)Nc1cc2c(Nc3ccc(F)c(Cl)c3)ncnc2cc1O[C@H]1CCOC1 [Afatinib] as the compound, how does the Synergistic lethal concentrations read?
**A.** 100 µM

**Q.** C=CC(=O)Nc1cc(Nc2nccc(-c3cn(C4CC4)c4ccccc34)n2)c(OC)cc1N(C)CCN(C)C.Cl [Almonertinib (hydrochloride)] was tested. Which Synergistic lethal concentrations did it give?
**A.** 12.5 µM

**Q.** For C=CC(=O)Nc1cc(Nc2nccc(-c3cn(C4CC4)c4ccccc34)n2)c(OC)cc1N(C)CCN(C)C [Almonertinib], which Synergistic lethal concentrations is on record?
**A.** 25 µM

**Q.** With CN(C)CCC=C1c2ccccc2CCc2ccccc21.Cl [Amitriptyline (hydrochloride)] as the compound, how does the Synergistic lethal concentrations read?
**A.** 100 µM

**Q.** CCOC(=O)C1=C(COCCN)NC(C)=C(C(=O)OC)C1c1ccccc1Cl.O=C(O)/C=C\C(=O)O (stereo not shown) [Amlodipine (maleate)] was tested. Which Synergistic lethal concentrations did it give?
**A.** 100 µM

**Q.** Which Synergistic lethal concentrations does the source give for CCOC(=O)C1=C(COCCN)NC(C)=C(C(=O)OC)C1c1ccccc1Cl (stereo not shown) [Amlodipine] here?
**A.** 100 µM

**Q.** Which Synergistic lethal concentrations does the source give for CCC(C)(C)c1ccc(CC(C)CN2C[C@@H](C)O[C@@H](C)C2)cc1.Cl (stereo partly shown) [Amorolfine (hydrochloride)] here?
**A.** 100 µM

**Q.** Clc1ccc2c(c1)C(N1CCNCC1)=Nc1ccccc1O2 [Amoxapine] was tested. Which Synergistic lethal concentrations did it give?
**A.** 100 µM

**Q.** How did the Synergistic lethal concentrations turn out when CN(C)N(C)C(=O)[C@@]1(Cc2ccccc2)CCCN(C(=O)[C@@H](Cc2c[nH]c3ccccc23)NC(=O)C(C)(C)N)C1.Cl [Anamorelin (hydrochloride)] was run?
**A.** 100 µM

**Q.** Which Synergistic lethal concentrations does the source give for CNCC[C@@H](Oc1ccccc1C)c1ccccc1.Cl [Atomoxetine (hydrochloride)] here?
**A.** 100 µM

**Q.** For CN1[C@@H]2CC[C@H]1C[C@@H](OC(c1ccccc1)c1ccccc1)C2.CS(=O)(=O)O [Benztropine (mesylate)], which Synergistic lethal concentrations is on record?
**A.** 100 µM

**Q.** How did the Synergistic lethal concentrations turn out when CCN1CCN(c2cc(-c3ccc(F)cc3)c3c(n2)CCCCCC3)CC1 [Blonanserin] was run?
**A.** 50 µM

**Q.** Which Synergistic lethal concentrations does the source give for COc1cc(Nc2c(C#N)cnc3cc(OCCCN4CCN(C)CC4)c(OC)cc23)c(Cl)cc1Cl [Bosutinib] here?
**A.** 25 µM

**Q.** Which Synergistic lethal concentrations does the source give for CCCCOc1ccc(CC(=O)NO)cc1 [Bufexamac] here?
**A.** 100 µM

**Q.** For Cc1ccc([C@@H]2O[C@H](CO)[C@@H](O)[C@H](O)[C@H]2O)cc1Cc1ccc(-c2ccc(F)cc2)s1.O [Canagliflozin (hemihydrate)], which Synergistic lethal concentrations is on record?
**A.** 100 µM

**Q.** For Cc1ccc([C@@H]2O[C@H](CO)[C@@H](O)[C@H](O)[C@H]2O)cc1Cc1ccc(-c2ccc(F)cc2)s1 [Canagliflozin], which Synergistic lethal concentrations is on record?
**A.** 100 µM

**Q.** How did the Synergistic lethal concentrations turn out when C[N+](C)(CC(=O)Nc1ccccc1)CC(=O)Nc1ccccc1.[Cl-] [Carcainium (chloride)] was run?
**A.** 100 µM

**Q.** How did the Synergistic lethal concentrations turn out when COc1ccccc1OCCNCC(O)COc1cccc2[nH]c3ccccc3c12 (stereo not shown) [Carvedilol] was run?
**A.** 100 µM

**Q.** How did the Synergistic lethal concentrations turn out when Cc1cc(Nc2ncc(Cl)c(Nc3ccccc3S(=O)(=O)C(C)C)n2)c(OC(C)C)cc1C1CCNCC1.Cl.Cl [Ceritinib dihydrochloride] was run?
**A.** 12.5 µM

**Q.** Which Synergistic lethal concentrations does the source give for Cc1cc(Nc2ncc(Cl)c(Nc3ccccc3S(=O)(=O)C(C)C)n2)c(OC(C)C)cc1C1CCNCC1 [Ceritinib] here?
**A.** 12.5 µM

**Q.** How did the Synergistic lethal concentrations turn out when N=C(NCCCCCCNC(=N)NC(=N)Nc1ccc(Cl)cc1)NC(=N)Nc1ccc(Cl)cc1.O=C(O)[C@H](O)[C@@H](O)[C@H](O)[C@H](O)CO.O=C(O)[C@H](O)[C@@H](O)[C@H](O)[C@H](O)CO [Chlorhexidine (digluconate)] was run?
**A.** 6.25 µM

**Q.** Which Synergistic lethal concentrations does the source give for CN(C)CC/C=C1/c2ccccc2Sc2ccc(Cl)cc21 [Chlorprothixene] here?
**A.** 100 µM

**Q.** Which Synergistic lethal concentrations does the source give for C[C@@H](NCCCc1cccc(C(F)(F)F)c1)c1cccc2ccccc12.Cl [Cinacalcet (hydrochloride)] here?
**A.** 100 µM

**Q.** C[C@@H](NCCCc1cccc(C(F)(F)F)c1)c1cccc2ccccc12 [Cinacalcet] was tested. Which Synergistic lethal concentrations did it give?
**A.** 100 µM

**Q.** Oc1c(I)cc(Cl)c2cccnc12 [Clioquinol] was tested. Which Synergistic lethal concentrations did it give?
**A.** 12.5 µM

**Q.** How did the Synergistic lethal concentrations turn out when CN1CCN(C2=Nc3cc(Cl)ccc3Nc3ccccc32)CC1 [Clozapine] was run?
**A.** 100 µM

**Q.** CC(C)c1nc(CN(C)C(=O)N[C@@H](CCN2CCOCC2)C(=O)N[C@H](CC[C@H](Cc2ccccc2)NC(=O)OCc2cncs2)Cc2ccccc2)cs1 [Cobicistat] was tested. Which Synergistic lethal concentrations did it give?
**A.** 100 µM

**Q.** Which Synergistic lethal concentrations does the source give for O=C(O)/C=C/C(=O)O.O=C(c1ccc(F)c(F)c1Nc1ccc(I)cc1F)N1CC(O)([C@@H]2CCCCN2)C1.O=C(c1ccc(F)c(F)c1Nc1ccc(I)cc1F)N1CC(O)([C@@H]2CCCCN2)C1 [Cobimetinib (hemifumarate)] here?
**A.** 50 µM

**Q.** For O=C(c1ccc(F)c(F)c1Nc1ccc(I)cc1F)N1CC(O)([C@@H]2CCCCN2)C1 [Cobimetinib], which Synergistic lethal concentrations is on record?
**A.** 50 µM

**Q.** Which Synergistic lethal concentrations does the source give for Cc1nc2c([nH]1)-c1ccccc1N(C(=O)c1ccc(NC(=O)c3ccccc3-c3ccccc3)cc1)CC2.Cl [Conivaptan (hydrochloride)] here?
**A.** 100 µM

**Q.** Which Synergistic lethal concentrations does the source give for CC1CC(OC(=O)C(O)c2ccccc2)CC(C)(C)C1 (stereo not shown) [Cyclandelate] here?
**A.** 100 µM

**Q.** CN(C)CCC=C1c2ccccc2C=Cc2ccccc21.Cl [Cyclobenzaprine (hydrochloride)] was tested. Which Synergistic lethal concentrations did it give?
**A.** 100 µM

**Q.** CN1CCC(=C2c3ccccc3C=Cc3ccccc32)CC1.Cl [Cyproheptadine (hydrochloride)] was tested. Which Synergistic lethal concentrations did it give?
**A.** 50 µM

**Q.** With CCCCCCOC(=O)NC(=N)c1ccc(NCc2nc3cc(C(=O)N(CCC(=O)OCC)c4ccccn4)ccc3n2C)cc1.CS(=O)(=O)O [Dabigatran etexilate (mesylate)] as the compound, how does the Synergistic lethal concentrations read?
**A.** 50 µM

**Q.** How did the Synergistic lethal concentrations turn out when CCCCCCOC(=O)N=C(N)c1ccc(NCc2nc3cc(C(=O)N(CCC(=O)OCC)c4ccccn4)ccc3n2C)cc1 [Dabigatran etexilate] was run?
**A.** 6.25 µM

**Q.** For COc1cc2ncnc(Nc3ccc(F)c(Cl)c3)c2cc1NC(=O)/C=C/CN1CCCCC1 [Dacomitinib], which Synergistic lethal concentrations is on record?
**A.** 100 µM

**Q.** With CN(C)[C@@H](CCOc1cccc2ccccc12)c1ccccc1.Cl [Dapoxetine (hydrochloride)] as the compound, how does the Synergistic lethal concentrations read?
**A.** 50 µM

**Q.** How did the Synergistic lethal concentrations turn out when CNCCCN1c2ccccc2CCc2ccccc21 [Desipramine hydrochloride] was run?
**A.** 100 µM

**Q.** How did the Synergistic lethal concentrations turn out when O=C(O)c1cc(-c2ccc(F)cc2F)ccc1O [Diflunisal] was run?
**A.** 100 µM

**Q.** CC(C)[C@@]1(NC(=O)[C@@H]2C[C@@H]3c4cccc5[nH]cc(c45)C[C@H]3N(C)C2)O[C@@]2(O)[C@@H]3CCCN3C(=O)[C@H](Cc3ccccc3)N2C1=O.CS(=O)(=O)O [Dihydroergocristine (mesylate)] was tested. Which Synergistic lethal concentrations did it give?
**A.** 100 µM

**Q.** With Cc1ccc2c(c1)[C@]13CCCC[C@@H]1[C@H](C2)N(C)CC3.O=P(O)(O)O [Dimemorfan (phosphate)] as the compound, how does the Synergistic lethal concentrations read?
**A.** 100 µM

**Q.** For OCCN(CCO)c1nc(N2CCCCC2)c2nc(N(CCO)CCO)nc(N3CCCCC3)c2n1 [Dipyridamole], which Synergistic lethal concentrations is on record?
**A.** 100 µM

**Q.** For CCN(CC)C(=S)SSC(=S)N(CC)CC [Disulfiram], which Synergistic lethal concentrations is on record?
**A.** 100 µM

**Q.** With CCCCC(CC)COC(=O)CC(C(=O)OCC(CC)CCCC)S(=O)(=O)[O-].[Na+] (stereo not shown) [Docusate (Sodium)] as the compound, how does the Synergistic lethal concentrations read?
**A.** 100 µM

**Q.** For CCCCCCCCCCCC[N+](C)(C)CCOc1ccccc1.[Br-] [Domiphen (bromide)], which Synergistic lethal concentrations is on record?
**A.** 0.1953 µM

**Q.** Which Synergistic lethal concentrations does the source give for O=c1[nH]c2ccccc2n1CCCN1CCC(n2c(=O)[nH]c3cc(Cl)ccc32)CC1 [Domperidone] here?
**A.** 100 µM

**Q.** Which Synergistic lethal concentrations does the source give for CCCCc1oc2ccc(NS(C)(=O)=O)cc2c1C(=O)c1ccc(OCCCN(CCCC)CCCC)cc1.Cl [Dronedarone (Hydrochloride)] here?
**A.** 100 µM

**Q.** With CCCCc1oc2ccc(NS(C)(=O)=O)cc2c1C(=O)c1ccc(OCCCN(CCCC)CCCC)cc1 [Dronedarone] as the compound, how does the Synergistic lethal concentrations read?
**A.** 100 µM

**Q.** O=C(CCCN1CC=C(n2c(=O)[nH]c3ccccc32)CC1)c1ccc(F)cc1 [Droperidol] was tested. Which Synergistic lethal concentrations did it give?
**A.** 100 µM

**Q.** With CN1CCN(c2ccc(C(=O)Nc3n[nH]c4ccc(Cc5cc(F)cc(F)c5)cc34)c(NC3CCOCC3)c2)CC1 [Entrectinib] as the compound, how does the Synergistic lethal concentrations read?
**A.** 50 µM

**Q.** CC(O)C(=O)O.CCOc1ccc2nc3cc(N)ccc3c(N)c2c1.O [Ethacridine (lactate monohydrate)] was tested. Which Synergistic lethal concentrations did it give?
**A.** 100 µM

**Q.** Which Synergistic lethal concentrations does the source give for CCOC(=O)c1cncn1[C@H](C)c1ccccc1.Cl [Etomidate (hydrochloride)] here?
**A.** 100 µM

**Q.** For C=CCc1ccc(O)c(OC)c1 [Eugenol], which Synergistic lethal concentrations is on record?
**A.** 100 µM

**Q.** For Cc1cnc(Nc2ccc(OCCN3CCCC3)cc2)nc1Nc1cccc(S(=O)(=O)NC(C)(C)C)c1 [Fedratinib], which Synergistic lethal concentrations is on record?
**A.** 100 µM

**Q.** How did the Synergistic lethal concentrations turn out when CCOC(=O)C1=C(C)NC(C)=C(C(=O)OC)C1c1cccc(Cl)c1Cl (stereo not shown) [Felodipine] was run?
**A.** 100 µM
